This note sets out measurements from patent US9938268B2, “C-ring modified tricyclic benzonaphthiridinone protein kinase inhibitors and use thereof” (Merck Patent GmbH, priority 2008, dated 2018).

For one assay, the target named is Aurora A (Homo sapiens (Human), UniProt O14965). As to the kind of experiment: Aurora A kinase inhibition (IC50). In kind it is biochemical.
Chain of Aurora A (O14965 whole entry): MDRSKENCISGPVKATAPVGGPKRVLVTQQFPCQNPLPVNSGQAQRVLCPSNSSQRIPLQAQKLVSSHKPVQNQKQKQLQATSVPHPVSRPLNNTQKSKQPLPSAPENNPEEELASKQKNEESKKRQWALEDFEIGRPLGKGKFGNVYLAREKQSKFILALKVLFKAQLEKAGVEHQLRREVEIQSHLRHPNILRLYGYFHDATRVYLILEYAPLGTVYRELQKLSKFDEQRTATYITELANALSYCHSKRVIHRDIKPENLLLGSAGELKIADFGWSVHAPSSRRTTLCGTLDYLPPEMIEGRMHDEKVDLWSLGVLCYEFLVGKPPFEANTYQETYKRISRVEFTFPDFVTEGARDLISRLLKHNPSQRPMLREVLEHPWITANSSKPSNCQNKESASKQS
Conditions: not given
In turn, `O=C(Nc1ccc(Oc2ccnc3[nH]c(=O)c4c(c23)CCCC4)cc1)c1cccn(-c2ccc(F)cc2)c1=O` [Compound 48, 1-(4-Fluoro-phenyl)-2-oxo-1,2-dihydro-pyridine-3-carboxylic acid [4-(6-oxo-5,6,7,8,9,10-hexahydro-benzo[c][1,8]naphthyridin-1-yloxy)-phenyl]-amide] gave an IC50 of 0.101 to 1 µM. Same read-out and setting: for `O=C(Nc1ccc(Nc2ccnc3[nH]c(=O)c4c(c23)CCCC4)cc1)c1ccc(F)cc1` [Compound 10, 4-Fluoro-N-[4-(6-oxo-5,6,7,8,9,10-hexahydrobenzo[c][1,8]naphthyridin-1-ylamino)-phenyl]-1-benzamide] the value was 0.001 to 0.01 µM; for `O=C(Nc1ccc(Nc2ccnc3[nH]c(=O)c4c(c23)CCCC4)cc1)c1cccc(C(F)(F)F)c1F` [Compound 11, 2-Fluoro-N-[4-(6-oxo-5,6,7,8,9,10-hexahydrobenzo[c][1,8]naphthyridin-1-ylamino)-phenyl]-3-trifluoromethyl-benzamide], 0.001 to 0.01 µM; for `O=C(Nc1ccc(Nc2ccnc3[nH]c(=O)c4c(c23)CCNC4)cc1)c1ccc(F)cc1` [Compound 25, 4-Fluoro-N-[4-(9-oxo-5,6,7,8,9,10-hexahydro-1,7,10-triaza-phenanthren-4-ylamino)-phenyl]-benzamide], 0.101 to 1 µM. Same read-out and setting: then `O=C(Nc1ccc(Nc2ccnc3[nH]c(=O)c4c(c23)CCCC4)cc1)c1ccc(F)cc1C(F)(F)F` [Compound 6, 4-Fluoro-N-[4-(6-oxo-5,6,7,8,9,10-hexahydrobenzo[c][1,8]naphthyridin-1-ylamino)-phenyl]-2-trifluoromethyl-1-benzamide], with 0.001 to 0.01 µM; and `O=C(Nc1ccc(Nc2ccnc3[nH]c(=O)c4c(c23)CCCC4)cc1)c1cc(F)cc(F)c1` [Compound 9, 3,5-Difluoro-N-[4-(6-oxo-5,6,7,8,9,10-hexahydrobenzo[c][1,8]naphthyridin-1-ylamino)-phenyl]-1-benzamide], with 0.001 to 0.01 µM; and `O=C(Nc1ccc(Nc2ccnc3[nH]c(=O)c4c(c23)CCCC4)cc1F)c1ccc(F)cc1C(F)(F)F` [Compound 54, 4-Fluoro-N-[2-fluoro-4-(6-oxo-5,6,7,8,9,10-hexahydrobenzo[c][1,8]naphthyridin-1-ylamino)-phenyl]-2-trifluoromethyl-benzamide], with 0.001 to 0.01 µM. The molecule `O=C(Nc1ccc(Nc2ccnc3[nH]c(=O)c4c(c23)CCN(Cc2ccccc2)C4)cc1)c1ccccc1` [Compound 29, N-[4-(7-Benzyl-9-oxo-5,6,7,8,9,10-hexahydro-1,7,10-triaza-phenanthren-4-ylamino)-phenyl]-benzamide] had an IC50 of 0.101 to 1 µM.

As for `O=C(Nc1ccc(Nc2ccnc3[nH]c(=O)c4c(c23)CNCC4)cc1)c1ccccc1` [Compound 28, N-[4-(9-oxo-5,6,7,8,9,10-hexahydro-1,6,10-triaza-phenanthren-4-ylamino)-phenyl]-benzamide], the IC50 lay within 0.101 to 1 µM. On the same count and under the same terms, then `O=C(Nc1ccc(Nc2ccnc3[nH]c(=O)c4c(c23)CCCC4)c(F)c1)c1cccc(F)c1F` [Compound 56, 2,3-Difluoro-N-[3-fluoro-4-(6-oxo-5,6,7,8,9,10-hexahydrobenzo[c][1,8]naphthyridin-1-ylamino)-phenyl]-1-benzamide], with 0.001 to 0.01 µM. On the same count and under the same terms, for `COc1cccc(Nc2ccnc3[nH]c(=O)c4ccoc4c23)c1` [Compound 40, 9-(3-Methoxy-phenylamino)-5H-furo[3,2-c][1,8]naphthyridin-4-one] the value was 0.101 to 1 µM. Still for that read-out and setting: for `O=C(Nc1ccc(Nc2ccnc3[nH]c(=O)c4c(c23)CCCC4)cc1)c1ccc(F)c(F)c1` [Compound 8, 3,4-Difluoro-N-[4-(6-oxo-5,6,7,8,9,10-hexahydrobenzo[c][1,8]naphthyridin-1-ylamino)-phenyl]-1-benzamide] the value was 0.001 to 0.01 µM; for `O=C(Nc1ccc(Nc2ccnc3[nH]c(=O)c4c(c23)CCCC4)c(F)c1)c1cccc(F)c1` [Compound 53, 3-Fluoro-N-[3-fluoro-4-(6-oxo-5,6,7,8,9,10-hexahydrobenzo[c][1,8]naphthyridin-1-ylamino)-phenyl]-2-benzamide], 0.001 to 0.01 µM. The molecule `O=C(Nc1ccc(Nc2ccnc3[nH]c(=O)c4c(c23)CCNC4)cc1)c1ccc(F)c(F)c1` [Compound 26, 3,4-Difluoro-N-[4-(9-oxo-5,6,7,8,9,10-hexahydro-1,7,10-triaza-phenanthren-4-ylamino)-phenyl]-benzamide] had an IC50 of 0.011 to 0.1 µM. Same read-out and setting: then `COc1ccc(Nc2ccnc3[nH]c(=O)c4ccoc4c23)cc1` [Compound 38, 9-(4-Methoxy-phenylamino)-5H-furo[3,2-c][1,8]naphthyridin-4-one], with 0.101 to 1 µM.

For the molecule `O=C(Nc1ccc(Nc2ccnc3[nH]c(=O)c4c(c23)CCCC4)cc1)c1c(Cl)cccc1Cl` [Compound 13, 2,6-Dichloro-N-[4-(6-oxo-5,6,7,8,9,10-hexahydrobenzo[c][1,8]naphthyridin-1-ylamino)-phenyl]-1-benzamide], the half-inhibitory concentration (IC50) lay within 0.001 to 0.01 µM.

The molecule `O=C(Nc1ccc(Nc2ccnc3[nH]c(=O)c4c(c23)CCCC4)cc1)c1cccc(F)c1F` [Compound 7, 2,3-Difluoro-N-[4-(6-oxo-5,6,7,8,9,10-hexahydrobenzo[c][1,8]naphthyridin-1-ylamino)-phenyl]-1-benzamide] displayed an IC50 of 0.001 to 0.01 µM. The same measure, in the same setting: for `O=C(Nc1ccc(Nc2ccnc3[nH]c(=O)c4ccoc4c23)cc1)c1ccccc1` [Compound 36, N-[4-(4-oxo-4,5-dihydro-furo[3,2-c][1,8]naphthyridin-9-ylamino)-phenyl]-benzamide] the value was 0.011 to 0.1 µM; for `Nc1ccc(Oc2ccnc3[nH]c(=O)c4c(c23)CCCC4)cc1` [Compound 46, 1-(4-Amino-phenoxy)-7,8,9,10-tetrahydro-5H-benzo[c][1,8]naphthyridin-6-one], 0.101 to 1 µM; for `O=C(Nc1ccc(Nc2ccnc3[nH]c(=O)c4c(c23)CCCC4)c(F)c1)c1ccc(F)c(F)c1` [Compound 55, 3,4-Difluoro-N-[3-fluoro-4-(6-oxo-5,6,7,8,9,10-hexahydrobenzo[c][1,8]naphthyridin-1-ylamino)-phenyl]-1-benzamide], 0.001 to 0.01 µM.

`O=C(Nc1ccc(Nc2ccnc3[nH]c(=O)c4n[nH]cc4c23)cc1)c1ccc(F)cc1C(F)(F)F` [Compound 34, 4-fluoro-N-(4-(4-oxo-4,5-dihydro-2H-pyrazolonaphthyridin-9-ylamino)phenyl)-2-(trifluoromethyl)benzamide]: the IC50 lay in the range of 0.001 to 0.01 µM. Same read-out and setting: then `O=c1[nH]c2nccc(Nc3ccc(Cl)cc3)c2c2occc12` [Compound 39, 9-(4-Chloro-phenylamino)-5H-furo[3,2-c][1,8]naphthyridin-4-one], with 0.101 to 1 µM; and `O=C(Nc1ccc(Nc2ccnc3[nH]c(=O)c4c(c23)CCCC4)c(F)c1)c1ccc(F)cc1C(F)(F)F` [Compound 52, 4-Fluoro-N-[3-fluoro-4-(6-oxo-5,6,7,8,9,10-hexahydrobenzo[c][1,8]naphthyridin-1-ylamino)-phenyl]-2-trifluoromethyl-benzamide], with 0.001 to 0.01 µM; and `O=C(Nc1ccc(Nc2ccnc3[nH]c(=O)c4c(c23)CCNC4)cc1)c1ccccc1` [Compound 27, N-[4-(9-oxo-5,6,7,8,9,10-hexahydro-1,7,10-triaza-phenanthren-4-ylamino)-phenyl]-benzamide], with 0.101 to 1 µM. The same measure, in the same setting: then `O=C(Nc1ccc(Nc2ccnc3[nH]c(=O)c4c(c23)CCCC4)cc1)c1ccccc1` [Compound 5, N-[4-(6-Oxo-5,6,7,8,9,10-hexahydrobenzo[c][1,8]naphthyridin-1-ylamino)-phenyl]-benzamide], with 0.011 to 0.1 µM; and `O=c1[nH]c2nccc(Nc3ccccc3)c2c2occc12` [Compound 37, 9-Phenylamino-5H-furo[3,2-c][1,8]naphthyridin-4-one], with 0.101 to 1 µM; and `O=C(Nc1ccc(Nc2ccnc3[nH]c(=O)c4n[nH]cc4c23)cc1)c1ccccc1` [Compound 33, N-(4-(4-oxo-4,5-dihydro-2H-pyrazolo[3,4-c][1,8]naphthyridin-9-ylamino)phenyl)benzamide], with 0.011 to 0.1 µM.

Staying with this assay, now noted: read-out: Aurora A IC50.
Regarding `Cc1cccc(-n2nc(C(C)(C)C)cc2NC(=O)Nc2ccc(Oc3ccnc4[nH]c(=O)c5c(c34)CCCC5)cc2)c1` [Compound 51, 1-(5-tert-Butyl-2-m-tolyl-2H-pyrazol-3-yl)-3-[4-(6-oxo-5,6,7,8,9,10-hexahydro-benzo[c][1,8]naphthyridin-1-yloxy)-phenyl]-urea], the IC50 lay within 0.101 to 1 µM. On the same count and under the same terms, then `O=c1[nH]c2nccc(Oc3ccc4c(c3)OCCN4)c2c2c1CCCC2` [Compound 47, 1-(3,4-Dihydro-2H-benzo[1,4]oxazin-7-yloxy)-7,8,9,10-tetrahydro-5H-benzo[c][1,8]naphthyridin-6-one], with 0.101 to 1 µM; and `O=C(Nc1ccc(Nc2ccnc3[nH]c(=O)c4c(c23)CCCC4)cc1)c1cc(Cl)cc(Cl)c1` [Compound 12, 3,5-Dichloro-N-[4-(6-oxo-5,6,7,8,9,10-hexahydrobenzo[c][1,8]naphthyridin-1-ylamino)-phenyl]-1-benzamide], with 0.011 to 0.1 µM.

As to `O=C(c1cccn(-c2ccc(F)cc2)c1=O)N1CCOc2cc(Oc3ccnc4[nH]c(=O)c5c(c34)CCCC5)ccc21` [Compound 49, 1-{4-[1-(4-Fluoro-phenyl)-2-oxo-1,2-dihydro-pyridine-3-carbonyl]-3,4-dihydro-2H-benzo[1,4]oxazin-7-yloxy}-7,8,9,10-tetrahydro-5H-benzo[c][1,8]naphthyridin-6-one], the IC50 fell in the range of 0.101 to 1 µM.

Turning to `O=C(Nc1ccc(Nc2ccnc3[nH]c(=O)c4c(c23)CCNC4)cc1)c1ccc(F)cc1C(F)(F)F` [Compound 24, 4-Fluoro-N-[4-(9-oxo-5,6,7,8,9,10-hexahydro-1,7,10-triaza-phenanthren-4-ylamino)-phenyl]-2-trifluoromethyl-benzamide], the IC50 is 0.011 to 0.1 µM. Same read-out and setting: for `O=c1[nH]c2nccc(Cl)c2c2cn(C(c3ccccc3)(c3ccccc3)c3ccccc3)nc12` [Compound 31, 9-Chloro-2-trityl-2H-pyrazolo[3,4-c][1,8]naphthyridin-4(5H)-one] the value was 0.101 to 1 µM.
